Assay results taken from the CheMixHub drug solubility set.

Assay: xn = mol fraction of the nth substance listed, in the solute-free solvent

CC(N)C(=O)O (configuration not stated) + O + CO
solubility (g/100 g solution)
Settings	x2 = 0.1	x2 = 0.2	x2 = 0.3	x2 = 0.4	x2 = 0.5	x2 = 0.6	x2 = 0.7	x2 = 0.8	x2 = 0.9
283.15 K	0.123	0.167	0.315	0.44	0.705	1.21	1.99	3.46	6.52
293.15 K	0.142	0.222	0.377	0.571	0.899	1.53	2.53	4.26	7.7
303.15 K	0.159	0.281	0.434	0.667	1.11	1.88	3.07	5.17	8.92
313.15 K	0.178	0.331	0.492	0.816	1.39	2.35	3.85	6.26	10.4
323.15 K	0.193	0.424	0.627	1.03	1.77	2.95	4.69	7.21	11.9

Cc1ncc(C[n+]2csc(CCO)c2C)c(N)n1.O=[N+]([O-])[O-] + O + CO
solubility (g/100 g solution)
Settings	x2 = 0.1	x2 = 0.2	x2 = 0.3	x2 = 0.4	x2 = 0.5	x2 = 0.6	x2 = 0.7	x2 = 0.8	x2 = 0.9
278.15 K	0.197	0.323	0.483	0.678	0.884	1.03	1.17	1.18	1.2
283.15 K	0.221	0.371	0.566	0.801	1.05	1.24	1.41	1.43	1.44
288.15 K	0.273	0.429	0.66	0.918	1.24	1.47	1.67	1.68	1.7
293.15 K	0.35	0.52	0.79	1.08	1.47	1.77	2.02	2.04	2.08
298.15 K	0.422	0.636	0.951	1.34	1.77	2.19	2.5	2.54	2.54
303.15 K	0.518	0.786	1.17	1.64	2.18	2.68	3.06	3.14	3.1
308.15 K	0.657	0.983	1.46	1.96	2.64	3.23	3.75	3.85	3.77
313.15 K	0.812	1.24	1.81	2.52	3.25	3.94	4.6	4.72	4.55

Cc1[nH]c(=O)c(C#N)cc1-c1ccncc1 + OCCO + O
solubility (g/100 g solution)
Settings	278.15 K	283.15 K	288.15 K	293.15 K	298.15 K	303.15 K	308.15 K	313.15 K	318.15 K	323.15 K
x2 = 0.03125	0.000882	0.00106	0.00125	0.00147	0.00171	0.00196	0.00222	0.00252	0.00285	0.00321
x2 = 0.06767	0.00131	0.00157	0.00185	0.00216	0.00252	0.00288	0.00326	0.0037	0.00417	0.0047
x2 = 0.1107	0.00189	0.00227	0.00266	0.00311	0.00362	0.00413	0.00467	0.00529	0.00595	0.0067
x2 = 0.1622	0.00264	0.00316	0.0037	0.00432	0.00502	0.00573	0.00647	0.00732	0.00821	0.00925
x2 = 0.225	0.00351	0.0042	0.00493	0.00575	0.00666	0.0076	0.00858	0.00971	0.0109	0.0123
x2 = 0.3034	0.00434	0.00527	0.00628	0.00732	0.00847	0.00967	0.0109	0.0123	0.0138	0.0155
x2 = 0.4038	0.00509	0.00622	0.00737	0.00855	0.00992	0.0116	0.0131	0.0148	0.0165	0.0186
x2 = 0.5373	0.00576	0.00696	0.00818	0.00966	0.0113	0.0129	0.0147	0.0167	0.0186	0.0211
x2 = 0.7232	0.00605	0.0074	0.00868	0.0102	0.0118	0.0135	0.0153	0.0174	0.0195	0.0223
